Experimental data published in paper PMC6327998, “Synthesis and biological evaluation of thiazole derivatives as LbSOD inhibitors” (Journal of Enzyme Inhibition and Medicinal Chemistry, 2018).

What was measured:
[1] = molecular target: T1, LbSOD (Leishmania braziliensis iron superoxide dismutase, FeSOD); assay: Kd from concentration-response (FITC-labeled protein fluorescence / thermal shift); type: binding
T1 construct: recombinant from pETM11-LbSOD, 6xHis-tag removed by TEV protease (23 kDa)

[2] = molecular target: T1, LbSOD (Leishmania braziliensis iron superoxide dismutase, FeSOD); assay: Kd from concentration-response (FITC-labeled protein fluorescence / thermal shift); binding confirmed by ITC

| SMILES | Kd [1] | Kd [2] |
| --- | --- | --- |
| COc1cccc(C=Nc2nc(-c3ccc(Br)cc3)cs2)c1 [Ju-514, N-(3-methoxybenzylidene)-4–(4-bromophenyl)thiazol-2-imine] | 6.1 ± 0.8 mM |  |
| O=[N+]([O-])c1ccc(-c2csc(N=Cc3ccc(Br)c(Br)c3)n2)cc1 [Ju-480, N-(3,4-dibromobenzylidene)-4–(4-nitrophenyl)thiazol-2-imine] |  | 0.0048 ± 0.0125 mM |
